# Test results taken from article PMC5426640, “A novel multifunctional peptide oligomer of bacitracin with possible bioindustrial and therapeutic applications from a Korean food-source Bacillus strain” (PLoS ONE, 2017).
# Where a SMILES comes first, the peptide text is derived from it. Bridges are numbered along the chain shown (N, C = ends). [ ]: non-standard residue; d: D form. The star is where a group is joined. Ileψ(thiazoline)Cys = CC[C@H](C)[C@H](N)C1=N[C@H](C(=O)*)CS1; dOrn = NCCC[C@@H](N)C(=O)O
# Legend:
# VRSA = test: microbe, parasite or virus in culture; type: cell-based, S. aureus; conditions: 18 h
# Experimental: (§1) This activity in terms of minimal inhibitory concentration (MIC) was determined by dilution and disk diffusion methods as per the Clinical and Laboratory Standards Institute (CLSI) guidelines for antimicrobial susceptibility testing. The examination of bacteria was conducted after incubation for 18 h at 37°C following inoculation of various test microorganisms, including methicillin-resistant Staphylococcus aureus (MRSA), vancomycin-resistant S. aureus (VRSA), or vancomycin-resistant enterococci (VRE). Control antibiotics were bacitracin and vancomycin.
# [1] = system: Micrococcus luteus ATCC 9341; test: microbe, parasite or virus in culture; type: cell-based
# Experimental: as §1
# [2] = system: Alcaligenes faecalis ATCC 1004; test: microbe, parasite or virus in culture; type: cell-based
# Experimental: as §1
# [3] = system: Listeria monocytogenes KCTC3569; test: microbe, parasite or virus in culture; type: cell-based; conditions: KCTC3569, 18 h
# Experimental: as §1
# [4] = system: Mycobacterium smegmatis ATCC 9341; test: microbe, parasite or virus in culture; type: cell-based; conditions: ATCC 9341, 18 h
# Experimental: as §1
# [5] = system: Salmonella typhimurium KCTC 1925; test: microbe, parasite or virus in culture; type: cell-based
# Experimental: as §1
# VRE82 = test: organism not typed; type: cell-based, enterococci; conditions: 18 h
# Experimental: as §1
# VRE5 = test: organism not typed; type: cell-based, enterococci; conditions: 18 h
# Experimental: as §1
# VRE89 = test: organism not typed; type: cell-based, enterococci; conditions: 18 h
# Experimental: as §1
# VRE4 = test: organism not typed; type: cell-based, enterococci; conditions: 18 h
# Experimental: as §1
# VRE3 = test: organism not typed; type: cell-based, enterococci; conditions: 18 h
# Experimental: as §1
# VRE6 = test: organism not typed; type: cell-based, enterococci; conditions: 18 h
# Experimental: as §1
# VRE 2 = test: microbe, parasite or virus in culture; type: cell-based, enterococci; conditions: 18 h
# Experimental: as §1
# [6] = system: Enterococcus faecalis ATCC 29212; type: cell-based; conditions: ATCC 29212, 18 h
# Experimental: as §1
# [7] = system: Bacillus subtilis ATCC 6633; type: cell-based; conditions: ATCC 6633, 18 h
# Experimental: as §1
# [8] = system: Escherichia coli KCTC 1923; type: cell-based; conditions: KCTC 1923, 18 h
# Experimental: as §1
# [9] = system: Staphylococcus aureus KCTC 1928; type: cell-based; conditions: KCTC 1928, 18 h
# Experimental: as §1
# [10] = system: Pseudomonas aeruginosa KCTC 1637; type: cell-based; conditions: KCTC 1637, 18 h
# Experimental: as §1
# MRSA P3 = test: microbe, parasite or virus in culture; type: cell-based, Staphylococcus aureus
# Experimental: as §1
# MRSA 639E = test: microbe, parasite or virus in culture; type: cell-based, Staphylococcus aureus; conditions: 18 h
# Experimental: as §1
# MSRA S1 = test: microbe, parasite or virus in culture; type: cell-based, Staphylococcus aureus; conditions: 18 h
# Experimental: as §1
# MRSA 4–5 = test: microbe, parasite or virus in culture; type: cell-based, Staphylococcus aureus
# Experimental: as §1
# MRSA 5–3 = test: microbe, parasite or virus in culture; type: cell-based, Staphylococcus aureus
# Experimental: as §1
# MRSA S3 = test: microbe, parasite or virus in culture; type: cell-based, Staphylococcus aureus
# Experimental: as §1
# MRSA U4 = test: microbe, parasite or virus in culture; type: cell-based, Staphylococcus aureus
# Experimental: as §1
# RAW 264.7 cells = test: Cell viability, MTT assay; type: cell-based, mouse; conditions: 5–100 μg/mL, 24 h; three independent experiments in triplicate
# Experimental: Cell viability was assessed using the 3-(4,5-dimethylthiazol-2-yl)-2,5-diphenyltetrazolium bromide (MTT) assay as described previously by Choi et al. (2016). For the cell viability assay, RAW 264.7 cells were seeded into a 96-well flat bottom microplate at a density of 2 × 10^4 cells per well and incubated at 37°C for 1 h. […] After 24 h of incubation, the medium was removed and wash in PBS once followed by 100 μl of MTT (5 mg/ml in PBS) solution was added to each well, and the plate was incubated for another 1 h. Then 100 μl of DMSO (100%) was added to dissolve the formazan crystals. Absorbance values were then measured at 450 nm using a microplate reader (Victor3, PerkinElmer).
# [11] = system: Clostridium difficile KCTC2251; test: Antimicrobial activity against anaerobic pathogens (mm); type: cell-based; conditions: 48 h, mean ± SD, n = 3
# [12] = system: Propionibacterium acnes KCTC5933; test: as above; type: cell-based; conditions: 48 h, mean ± SD, n = 3
# Mycobacterium smegmatis = test: microbe, parasite or virus in culture; type: cell-based; conditions: Mycolicibacterium smegmatis, ATCC9341, 18 h
# Experimental: as §1
# [13] = Staphylococcus aureus, MRSA, 18 h
smiles,measurement,setting,value
CC[C@H](C)[C@H](N)C1=N[C@H](C(=O)N[C@@H](CC(C)C)C(=O)N[C@H](CCC(=O)O)C(=O)N[C@H](C(=O)N[C@H]2CCCCNC(=O)[C@H](CC(N)=O)NC(=O)[C@@H](CC(=O)O)NC(=O)[C@H](Cc3cnc[nH]3)NC(=O)[C@@H](Cc3ccccc3)NC(=O)[C@H]([C@@H](C)CC)NC(=O)[C@@H](CCCN)NC2=O)[C@@H](C)CC)CS1 [Bacitracin] ({Ileψ(thiazoline)Cys}-L[dE]IK[dOrn]I[dF]H[dD]N; lactam 4-C (inferred); N-terminus assumed),MIC,VRSA,>80 µg/mL
same,MIC,"[1]; ATCC 9341, 18 h",>80 µg/mL
same,MIC,"[2]; ATCC 1004, 18 h",>80 µg/mL
same,MIC,[3],0.3125 µg/mL
same,MIC,[4],>80 µg/mL
same,MIC,"[5]; KCTC 1925, 18 h",>80 µg/mL
same,MIC,VRE82,40 µg/mL
same,MIC,VRE5,1.25 µg/mL
same,MIC,VRE89,40 µg/mL
same,MIC,VRE4,5 µg/mL
same,MIC,VRE3,20 µg/mL
same,MIC,VRE6,>80 µg/mL
same,MIC,VRE 2,0.3125 µg/mL
same,MIC,[6],5 µg/mL
same,MIC,[7],40 µg/mL
same,MIC,[8],>80 µg/mL
same,MIC,[9],40 µg/mL
same,MIC,[10],>80 µg/mL
same,MIC,"MRSA P3; P3, 18 h",1.25 µg/mL
same,MIC,MRSA 639E; 639E,40 µg/mL
same,MIC,MSRA S1,1.25 µg/mL
same,MIC,"MRSA 4–5; 4–5, 18 h",1.25 µg/mL
same,MIC,"MRSA 5–3; 5–3, 18 h",1.25 µg/mL
same,MIC,"MRSA S3; S3, 18 h",1.25 µg/mL
same,MIC,"MRSA U4; U4, 18 h",1.25 µg/mL
CC[C@H](C)[C@H](N)C1=N[C@H](C(=O)N[C@@H](CC(C)C)C(=O)N[C@H](CCC(=O)O)C(=O)N[C@H](C(=O)N[C@H]2CCCCNC(=O)[C@H](CC(N)=O)NC(=O)[C@@H](CC(=O)O)NC(=O)[C@H](Cc3cnc[nH]3)NC(=O)[C@@H](Cc3ccccc3)NC(=O)[C@H]([C@@H](C)CC)NC(=O)[C@@H](CCCN)NC2=O)[C@@H](C)CC)CS1 [CSP32] ({Ileψ(thiazoline)Cys}-L[dE]IK[dOrn]I[dF]H[dD]N; lactam 4-C),Cytotoxicity toward RAW 264.7 cells (MTT),RAW 264.7 cells,did not exert cytotoxicity
CC[C@@]1([C@@H]2O[C@@H]([C@H]3O[C@@](O)(CO)[C@H](C)C[C@@H]3C)C[C@@H]2C)CC[C@H]([C@]2(C)CC[C@]3(C[C@H](O)[C@@H](C)[C@@H]([C@@H](C)[C@@H](OC)[C@H](C)C(=O)O)O3)O2)O1 [Monensin],"Antimicrobial activity, Clostridium difficile (mm)",[11]; concentration 0.125 mg/mL,13.17±0.29 mm
same,"Antimicrobial activity, Clostridium difficile (mm)",[11]; concentration 0.25 mg/mL,13.00±0.50 mm
same,"Antimicrobial activity, Clostridium difficile (mm)",[11]; concentration 0.5 mg/mL,15.17±0.29 mm
same,"Antimicrobial activity, Clostridium difficile (mm)",[11]; concentration 1 mg/mL,17.33±0.29 mm
same,"Antimicrobial activity, Propionibacterium acnes (mm)",[12]; concentration 0.125 mg/mL,13.00±0.50 mm
same,"Antimicrobial activity, Propionibacterium acnes (mm)",[12]; concentration 0.25 mg/mL,15.17±0.29 mm
same,"Antimicrobial activity, Propionibacterium acnes (mm)",[12]; concentration 0.5 mg/mL,17.33±0.58 mm
same,"Antimicrobial activity, Propionibacterium acnes (mm)",[12]; concentration 1 mg/mL,17.17±0.29 mm
CN[C@H](CC(C)C)C(=O)N[C@H]1C(=O)N[C@@H](CC(N)=O)C(=O)N[C@H]2C(=O)N[C@H]3C(=O)N[C@H](C(=O)N[C@H](C(=O)O)c4cc(O)cc(O)c4-c4cc3ccc4O)[C@H](O)c3ccc(c(Cl)c3)Oc3cc2cc(c3O[C@@H]2O[C@H](CO)[C@@H](O)[C@H](O)[C@H]2O[C@H]2C[C@](C)(N)[C@H](O)[C@H](C)O2)Oc2ccc(cc2Cl)[C@H]1O [Vancomycin],MIC,"VRSA; Staphylococcus aureus, VRSA",> 80 µg/mL
same,MIC,"[1]; Micrococcus luteus, ATCC9341, 18 h",0.156 µg/mL
same,MIC,"[2]; Alcaligenes faecalis, ATCC1004, 18 h",> 80 µg/mL
same,MIC,[3]; Listeria monocytogenes,0.156 µg/mL
same,MIC,Mycobacterium smegmatis,0.312 µg/mL
same,MIC,"[5]; Salmonella enterica, 18 h",> 80 µg/mL
same,MIC,VRE82,> 80 µg/mL
same,MIC,VRE5,> 80 µg/mL
same,MIC,VRE89,> 80 µg/mL
same,MIC,VRE4,> 80 µg/mL
same,MIC,VRE3,> 80 µg/mL
same,MIC,VRE6,> 80 µg/mL
same,MIC,"VRE 2; Enterococcus, VRE",> 80 µg/mL
same,MIC,MRSA P3; [13],0.625 µg/mL
same,MIC,"MRSA 639E; Staphylococcus aureus, MRSA",0.312 µg/mL
same,MIC,MSRA S1; Staphylococcus aureus,0.625 µg/mL
same,MIC,MRSA 4–5; [13],0.312 µg/mL
same,MIC,MRSA 5–3; [13],0.312 µg/mL
same,MIC,MRSA S3; [13],0.312 µg/mL
same,MIC,MRSA U4; [13],0.312 µg/mL
